Data reported in ChEMBL document CHEMBL5543175, “Discovery of Selective Proteolysis-Targeting Chimera Degraders Targeting PTP1B as Long-Term Hypoglycemic Agents” (J Med Chem, 2024).

How the values were obtained:
Type in all cases: cell-based
[1] = biological target: T1, Protein cereblon/Tyrosine-protein phosphatase non-receptor type 1 (Homo sapiens, UniProt P18031+Q96SW2); assay: PROTAC activity at PTP1B/CRBN in insulin treated human HepG2 cells assessed as protein degradation at 5 nM incubated for 48 hrs by Western blot analysis relative to control
Target sequence in this assay (P18031 whole entry, looked up): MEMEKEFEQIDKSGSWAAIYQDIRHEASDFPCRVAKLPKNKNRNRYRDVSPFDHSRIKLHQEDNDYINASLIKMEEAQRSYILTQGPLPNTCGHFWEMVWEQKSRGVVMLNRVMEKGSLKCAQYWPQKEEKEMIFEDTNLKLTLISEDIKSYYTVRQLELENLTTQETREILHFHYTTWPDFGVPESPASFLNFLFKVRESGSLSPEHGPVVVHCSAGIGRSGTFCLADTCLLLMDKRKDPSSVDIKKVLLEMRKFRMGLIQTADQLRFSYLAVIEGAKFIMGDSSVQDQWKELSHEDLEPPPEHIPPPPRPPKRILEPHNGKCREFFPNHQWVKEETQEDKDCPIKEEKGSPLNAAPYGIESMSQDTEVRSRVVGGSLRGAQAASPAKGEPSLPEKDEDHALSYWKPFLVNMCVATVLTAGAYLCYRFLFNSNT
Target sequence in this assay (Q96SW2 whole entry, looked up): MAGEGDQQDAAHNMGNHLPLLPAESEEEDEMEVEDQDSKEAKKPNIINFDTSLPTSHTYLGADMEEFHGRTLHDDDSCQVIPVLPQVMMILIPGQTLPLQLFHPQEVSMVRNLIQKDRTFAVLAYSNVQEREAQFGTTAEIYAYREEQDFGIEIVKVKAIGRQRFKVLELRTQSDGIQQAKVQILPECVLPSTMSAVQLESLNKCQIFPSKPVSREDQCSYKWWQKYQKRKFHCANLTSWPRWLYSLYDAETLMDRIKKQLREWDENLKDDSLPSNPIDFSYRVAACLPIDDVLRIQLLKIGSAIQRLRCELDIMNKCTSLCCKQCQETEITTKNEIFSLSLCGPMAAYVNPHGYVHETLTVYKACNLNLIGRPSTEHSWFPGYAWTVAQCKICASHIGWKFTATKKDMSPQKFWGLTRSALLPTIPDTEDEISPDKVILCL

[2] = biological target: T1, Protein cereblon/Tyrosine-protein phosphatase non-receptor type 1; assay: PROTAC activity at PTP1B/CRBN in insulin treated human HepG2 cells assessed as protein degradation at 50 nM incubated for 48 hrs by Western blot analysis relative to control
Target sequence in this assay (P18031 whole entry, looked up): as the sequence (P18031 whole entry, looked up) above
Target sequence in this assay (Q96SW2 whole entry, looked up): as the sequence (Q96SW2 whole entry, looked up) above

[3] = biological target: T1, Protein cereblon/Tyrosine-protein phosphatase non-receptor type 1; assay: PROTAC activity at PTP1B/CRBN in insulin treated human HepG2 cells assessed as protein degradation at 500 nM incubated for 48 hrs by Western blot analysis relative to control
Target sequence in this assay (P18031 whole entry, looked up): as the sequence (P18031 whole entry, looked up) above
Target sequence in this assay (Q96SW2 whole entry, looked up): as the sequence (Q96SW2 whole entry, looked up) above

[4] = biological target: T1, Protein cereblon/Tyrosine-protein phosphatase non-receptor type 1; assay: PROTAC activity at PTP1B/CRBN in insulin treated human HepG2 cells assessed as protein degradation at 5000 nM incubated for 48 hrs by Western blot analysis relative to control
Target sequence in this assay (P18031 whole entry, looked up): as the sequence (P18031 whole entry, looked up) above
Target sequence in this assay (Q96SW2 whole entry, looked up): as the sequence (Q96SW2 whole entry, looked up) above

[5] = biological target: T1, Protein cereblon/Tyrosine-protein phosphatase non-receptor type 1; assay: PROTAC activity at PTP1B/CRBN in insulin treated human HepG2 cells assessed as protein degradation at 125 nM incubated for 72 hrs by Western blot analysis relative to control
Target sequence in this assay (P18031 whole entry, looked up): as the sequence (P18031 whole entry, looked up) above
Target sequence in this assay (Q96SW2 whole entry, looked up): as the sequence (Q96SW2 whole entry, looked up) above

[6] = biological target: T1, Protein cereblon/Tyrosine-protein phosphatase non-receptor type 1; assay: PROTAC activity at PTP1B/CRBN in insulin treated human HepG2 cells assessed as protein degradation incubated for 72 hrs by Western blot analysis
[7] = biological target: T1, Protein cereblon/Tyrosine-protein phosphatase non-receptor type 1; assay: PROTAC activity at PTP1B/CRBN in insulin treated human HepG2 cells assessed as protein degradation at 5 nM incubated for 72 hrs by Western blot analysis relative to control
Target sequence in this assay (P18031 whole entry, looked up): as the sequence (P18031 whole entry, looked up) above
Target sequence in this assay (Q96SW2 whole entry, looked up): as the sequence (Q96SW2 whole entry, looked up) above

[8] = biological target: T1, Protein cereblon/Tyrosine-protein phosphatase non-receptor type 1; assay: PROTAC activity at PTP1B/CRBN in insulin treated human HepG2 cells assessed as protein degradation at 25 nM incubated for 72 hrs by Western blot analysis relative to control
[9] = biological target: T1, Protein cereblon/Tyrosine-protein phosphatase non-receptor type 1; assay: PROTAC activity at PTP1B/CRBN in insulin treated human HepG2 cells assessed as protein degradation at 1 nM incubated for 48 hrs by Western blot analysis relative to control
[10] = biological target: T1, Protein cereblon/Tyrosine-protein phosphatase non-receptor type 1; assay: PROTAC activity at PTP1B/CRBN in insulin treated human HepG2 cells assessed as protein degradation at 1250 nM incubated for 72 hrs by Western blot analysis relative to control
[11] = biological target: T1, Protein cereblon/Tyrosine-protein phosphatase non-receptor type 1; assay: PROTAC activity at PTP1B/CRBN in insulin treated human HepG2 cells assessed as protein degradation at 625 nM incubated for 48 hrs by Western blot analysis relative to control
[12] = biological target: T1, Protein cereblon/Tyrosine-protein phosphatase non-receptor type 1; assay: PROTAC activity at PTP1B/CRBN in insulin treated human HepG2 cells assessed as protein degradation at 625 nM incubated for 72 hrs by Western blot analysis relative to control
[13] = biological target: T1, Protein cereblon/Tyrosine-protein phosphatase non-receptor type 1; assay: PROTAC activity at PTP1B/CRBN in insulin treated human HepG2 cells assessed as protein degradation at 1 nM incubated for 72 hrs by Western blot analysis relative to control
[14] = biological target: T1, Protein cereblon/Tyrosine-protein phosphatase non-receptor type 1; assay: PROTAC activity at PTP1B/CRBN in insulin treated human HepG2 cells assessed as protein degradation at 1250 nM incubated for 48 hrs by Western blot analysis relative to control
[15] = biological target: T1, Protein cereblon/Tyrosine-protein phosphatase non-receptor type 1; assay: PROTAC activity at PTP1B/CRBN in insulin treated human HepG2 cells assessed as protein degradation at 25 nM incubated for 48 hrs by Western blot analysis relative to control
[16] = biological target: T1, Protein cereblon/Tyrosine-protein phosphatase non-receptor type 1; assay: PROTAC activity at PTP1B/CRBN in insulin treated human HepG2 cells assessed as protein degradation incubated for 48 hrs by Western blot analysis
[17] = biological target: T1, Protein cereblon/Tyrosine-protein phosphatase non-receptor type 1; assay: PROTAC activity at PTP1B/CRBN in insulin treated human HepG2 cells assessed as protein degradation at 125 nM incubated for 48 hrs by Western blot analysis relative to control

| Activity [1] | Activity [2] | Activity [3] | Activity [4] | SMILES | further results |
| --- | --- | --- | --- | --- | --- |
| 71% | 38% | 13% | < 5% | O=C1CCC(N2C(=O)c3cccc(NC(=O)COCCOCCOCCCCCCNC(=O)c4cccc(NC(=O)CSc5nc6ccccc6[nH]5)c4)c3C2=O)C(=O)N1 (stereo not drawn) | – |
| 38% | 61% | 53% | 31% | CC1(C)CC[C@]2(C(=O)NCCCOCCOCCOCCCNc3cccc4c3C(=O)N(C3CCC(=O)NC3=O)C4=O)CC[C@]3(C)C(=CC[C@@H]4[C@@]5(C)CC[C@H](O)C(C)(C)[C@@H]5CC[C@]43C)[C@@H]2C1 (stereo partly drawn) | Activity [5]: 41%; Activity [6]: Dose-Dependent Effect; DC50 [6]: 3640 nM; Activity [7]: 23%; Activity [8]: 58%; Activity [9]: 24%; Activity [10]: 24%; Activity [11]: 51%; Activity [12]: 25%; Activity [13]: < 5%; Activity [14]: 78%; Activity [15]: < 5%; Activity [16]: Dose-Dependent Effect; DC50 [16]: 540 nM; Activity [17]: 36% |
| 17% | 75% | 55% | 58% | CC1(C)CC[C@]2(C(=O)NCCCOCCCCOCCCNc3cccc4c3C(=O)N(C3CCC(=O)NC3=O)C4=O)CC[C@]3(C)C(=CC[C@@H]4[C@@]5(C)CC[C@H](O)C(C)(C)[C@@H]5CC[C@]43C)[C@@H]2C1 (stereo partly drawn) | Activity [5]: 43%; Activity [6]: Dose-Dependent Effect; DC50 [6]: 200 nM; Activity [7]: 54%; Activity [8]: 66%; Activity [9]: 33%; Activity [10]: 53%; Activity [11]: 45%; Activity [12]: 47%; Activity [13]: 5%; Activity [14]: 62%; Activity [15]: < 5%; Activity [16]: Dose-Dependent Effect; DC50 [16]: 770 nM; Activity [17]: 8% |
| 45% | 33% | 36% | < 5% | CC1(C)CC[C@]2(C(=O)NCCCCCCOCCOCCCCCC(=O)Nc3cccc4c3C(=O)N(C3CCC(=O)NC3=O)C4=O)CC[C@]3(C)C(=CC[C@@H]4[C@@]5(C)CC[C@H](O)C(C)(C)[C@@H]5CC[C@]43C)[C@@H]2C1 (stereo partly drawn) | – |
| 24% | 69% | 43% | < 5% | O=C1CCC(N2C(=O)c3cccc(NC(=O)COCCOCCCCCCNC(=O)c4cccc(NC(=O)CSc5nc6ccccc6[nH]5)c4)c3C2=O)C(=O)N1 (stereo not drawn) | – |
| 11% | 67% | 23% | 14% | C[C@H]1[C@H](C)CC[C@]2(C(=O)NCCCCCCNc3cccc4c3C(=O)N(C3CCC(=O)NC3=O)C4=O)CC[C@]3(C)C(=CC[C@@H]4[C@@]5(C)CC[C@H](O)C(C)(C)[C@@H]5CC[C@]43C)[C@H]12 (stereo partly drawn) | – |
| < 5% | < 5% | 12% | 42% | C[C@H]1[C@H](C)CC[C@]2(C(=O)NCCCCCCOCCOCCOCCOCCCCCC(=O)Nc3cccc4c3C(=O)N(C3CCC(=O)NC3=O)C4=O)CC[C@]3(C)C(=CC[C@@H]4[C@@]5(C)CC[C@H](O)C(C)(C)[C@@H]5CC[C@]43C)[C@H]12 (stereo partly drawn) | – |
| 32% | 9% | 19% | < 5% | O=C1CCC(N2C(=O)c3cccc(NC(=O)CCCCCCCCCCNC(=O)c4cccc(NC(=O)CSc5nc6ccccc6[nH]5)c4)c3C2=O)C(=O)N1 (stereo not drawn) | – |
| 16% | < 5% | 6% | 17% | C[C@H]1[C@H](C)CC[C@]2(C(=O)NCCCCCCOCCOCCOCCCCCC(=O)Nc3cccc4c3C(=O)N(C3CCC(=O)NC3=O)C4=O)CC[C@]3(C)C(=CC[C@@H]4[C@@]5(C)CC[C@H](O)C(C)(C)[C@@H]5CC[C@]43C)[C@H]12 (stereo partly drawn) | – |
| 8% | 16% | < 5% | 22% | CC1(C)CC[C@]2(C(=O)NCCCCCCOCCOCCOCCCCCC(=O)Nc3cccc4c3C(=O)N(C3CCC(=O)NC3=O)C4=O)CC[C@]3(C)C(=CC[C@@H]4[C@@]5(C)CC[C@H](O)C(C)(C)[C@@H]5CC[C@]43C)[C@@H]2C1 (stereo partly drawn) | – |
| 32% | 17% | < 5% | < 5% | O=C1CCC(N2C(=O)c3cccc(NC(=O)CCCCCOCCOCCOCCOCCCCCCNC(=O)c4cccc(NC(=O)CSc5nc6ccccc6[nH]5)c4)c3C2=O)C(=O)N1 (stereo not drawn) | – |
| 26% | 70% | 44% | 15% | O=C1CCC(N2C(=O)c3cccc(NC(=O)COCCOCCOCCOCCCCCCNC(=O)c4cccc(NC(=O)CSc5nc6ccccc6[nH]5)c4)c3C2=O)C(=O)N1 (stereo not drawn) | – |
| < 5% | 41% | 33% | 19% | C[C@H]1[C@H](C)CC[C@]2(C(=O)NCCCCCCOCCOCCOCCOCC(=O)Nc3cccc4c3C(=O)N(C3CCC(=O)NC3=O)C4=O)CC[C@]3(C)C(=CC[C@@H]4[C@@]5(C)CC[C@H](O)C(C)(C)[C@@H]5CC[C@]43C)[C@H]12 (stereo partly drawn) | Activity [5]: 32%; Activity [6]: Dose-Dependent Effect; DC50 [6]: 310 nM; Activity [7]: 36%; Activity [8]: 48%; Activity [9]: 37%; Activity [10]: 61%; Activity [11]: 68%; Activity [12]: 28%; Activity [13]: 30%; Activity [14]: 35%; Activity [15]: 23%; Activity [16]: Dose-Dependent Effect; DC50 [16]: 200 nM; Activity [17]: 61% |
| 8% | 32% | < 5% | 30% | O=C1CCC(N2C(=O)c3cccc(NC(=O)CCCCCOCCOCCOCCCCCCNC(=O)c4cccc(NC(=O)CSc5nc6ccccc6[nH]5)c4)c3C2=O)C(=O)N1 (stereo not drawn) | – |
| < 5% | 17% | 13% | 10% | O=C1CCC(N2C(=O)c3cccc(NC(=O)CCCCCOCCOCCCCCCNC(=O)c4cccc(NC(=O)CSc5nc6ccccc6[nH]5)c4)c3C2=O)C(=O)N1 (stereo not drawn) | – |
| 24% | 51% | 6% | 32% | CC1(C)CC[C@]2(C(=O)NCCCCCCOCCOCCOCCOCC(=O)Nc3cccc4c3C(=O)N(C3CCC(=O)NC3=O)C4=O)CC[C@]3(C)C(=CC[C@@H]4[C@@]5(C)CC[C@H](O)C(C)(C)[C@@H]5CC[C@]43C)[C@@H]2C1 (stereo partly drawn) | – |
| 84% | 56% | 38% | < 5% | CC1(C)CC[C@]2(C(=O)NCCCCCCOCCOCCOCC(=O)Nc3cccc4c3C(=O)N(C3CCC(=O)NC3=O)C4=O)CC[C@]3(C)C(=CC[C@@H]4[C@@]5(C)CC[C@H](O)C(C)(C)[C@@H]5CC[C@]43C)[C@@H]2C1 (stereo partly drawn) | – |
| 46% | 60% | < 5% | < 5% | C[C@H]1[C@H](C)CC[C@]2(C(=O)NCCCCCCOCCOCC(=O)Nc3cccc4c3C(=O)N(C3CCC(=O)NC3=O)C4=O)CC[C@]3(C)C(=CC[C@@H]4[C@@]5(C)CC[C@H](O)C(C)(C)[C@@H]5CC[C@]43C)[C@H]12 (stereo partly drawn) | – |
| 36% | 65% | 54% | 46% | C[C@H]1[C@H](C)CC[C@]2(C(=O)NCCCOCCCCOCCCNc3cccc4c3C(=O)N(C3CCC(=O)NC3=O)C4=O)CC[C@]3(C)C(=CC[C@@H]4[C@@]5(C)CC[C@H](O)C(C)(C)C5CC[C@]43C)[C@H]12 (stereo partly drawn) | – |
| 38% | 44% | 43% | 29% | CC1(C)CC[C@]2(C(=O)NCCCCCCNc3cccc4c3C(=O)N(C3CCC(=O)NC3=O)C4=O)CC[C@]3(C)C(=CC[C@@H]4[C@@]5(C)CC[C@H](O)C(C)(C)[C@@H]5CC[C@]43C)[C@@H]2C1 (stereo partly drawn) | – |
| 18% | 47% | 29% | 5% | C[C@H]1[C@H](C)CC[C@]2(C(=O)NCCCCCCOCCOCCCCCC(=O)Nc3cccc4c3C(=O)N(C3CCC(=O)NC3=O)C4=O)CC[C@]3(C)C(=CC[C@@H]4[C@@]5(C)CC[C@H](O)C(C)(C)[C@@H]5CC[C@]43C)[C@H]12 (stereo partly drawn) | – |
| 57% | 51% | 26% | < 5% | CC1(C)CC[C@]2(C(=O)NCCCCCCOCCOCC(=O)Nc3cccc4c3C(=O)N(C3CCC(=O)NC3=O)C4=O)CC[C@]3(C)C(=CC[C@@H]4[C@@]5(C)CC[C@H](O)C(C)(C)[C@@H]5CC[C@]43C)[C@@H]2C1 (stereo partly drawn) | – |
